How the values were obtained:
[1] = tested on: primary bone marrow cells; test: OPP incorporation (protein synthesis) by flow cytometry; type: cell-based, mouse; settings: pre-treatment with translation inhibitor; primary bone marrow cells in culture
Description: FIG. 1A-D depict quantification of protein synthesis in hematopoietic cells. FIG. 1A depicts how 0-propargyl-puromycin (OPP) was used to quantify protein synthesis within cells. OPP is a puromycin analog with a terminal alkyne group that mimics an aminoacyl-tRNA and integrates into nascent polypeptides. Azide-alkyne cycloaddition can covalently link a fluorescently tagged azide molecule to OPP that has been incorporated into new peptides. FIG. 1B depicts that when OPP was added to cell culture medium, its incorporation in primary bone marrow cells was detected and quantified by flow cytometry. […] FIG. 1C depicts OPP incorporation in CD150^+CD48^−Lineage^−Sca1^+ckit^+ (CD150^+CD48^−LSK) HSCs and unfractionated bone marrow cells one hour after administration in vivo. FIG. 1D depicts OPP incorporation (protein synthesis rates) in HSCs, multipotent progenitors (MPP), common myeloid progenitors (CMP), granulocyte macrophage progenitors (GMP), granulocytes (GR) megakaryocyte erythroid progenitors (MEP), CD71^+Ter119^+ erythroid progenitors (E), pro-B, pre-B, IgM^+ B cells (IgM), CD3^+ T cells (T), and unfractionated bone marrow cells (BM). […] Statistical significance relative to HSCs was assessed using a repeated-measures one way ANOVA followed by Dunnett's test (n=9; **P<0.01, ***P<0.001).

CD48-LSK HSCs/MPPs = test: Western blot of ubiquitylated protein in cultured HSCs; type: cell-based, mouse; settings: added to culture medium; HSCs 4 and 18 hours in vitro
Description: FIG. 10A-C depicts increased protein synthesis and reduced protein quality within HSCs in vitro. FIG. 10A depicts relative protein synthesis rates of HSCs normalized to bone marrow cells in vivo (n=6) and after 4 hours in vitro (n=5). Statistical significance was assessed with a two-tailed Student's t-test (***P<0.001). FIGS. 10B and 10C depict western blots that examined ubiquitylated protein levels in freshly isolated or cultured CD48^−LSK HSCs/MPPs. […] The accumulation of ubiquitylated protein was prevented by addition of the translation inhibitor cycloheximide (CHX) to culture medium.
The accumulation of ubiquitylated protein could be blocked by adding the translation inhibitor cycloheximide to the culture medium (FIG. 10B, 10C).

bone marrow cells = test: TMI fluorescence (unfolded protein) in bone marrow cells from treated mice; type: in vivo; settings: bone marrow cells isolated from treated mice
Description: FIG. 6A-D depict the validation of tetraphenylethene maleimide (TMI) as a probe to measure unfolded protein. FIG. 6A depicts that TMI is a cell permeable dye that fluoresces upon binding to cysteine thiols. The free thiol side chains of non-disulphide bonded hydrophobic cysteines are typically buried within the core of globular proteins, but can be exposed in unfolded proteins. FIG. 6B depicts that TMI fluorescence was higher in bone marrow cells after a 4 hour incubation at 42° C. as compared to 37° C. Since heat shock induces protein unfolding, this validated TMI as a means to quantify unfolded protein. FIG. 6C depicts that TMI fluorescence in bone marrow cells was increased after treatment with the proteasome inhibitor bortezomib. […] FIG. 6B-D validated that TMI can be used to quantify unfolded protein (protein quality) in hematopoietic cells.
As a complement to evaluating protein quality by assessing changes in ubiquitylated protein, a quantitative orthogonal assay to measure protein quality was developed. Tetraphenylethene maleimide (TMI) is a cell permeable dye that fluoresces upon binding to cysteine thiols. […] We adapted TMI to quantify unfolded proteins within single hematopoietic cells by flow cytometry. We validated TMI by assessing the effect of heat shock, which induces protein unfolding, on TMI fluorescence in bone marrow cells. […]

HSCs = test: Competitive transplantation of HSCs cultured 10 days, with serial transplantation; type: cell-based, murine
Source text: FIG. 16A-B depict that HSC functionality is maintained and expanded in vitro by interventions that can induce/activate Hsf1. FIG. 16A depicts donor cell engraftment 16 weeks after transplantation of 10 HSCs cultured for 10 days in the presence or absence of an HSP90 inhibitor (17-AAG) or TRiC inhibitor (HSF1A) or from 10 freshly isolated HSCs. Cells were transplanted with 2×10^5 freshly isolated congenic bone marrow cells (n=3 independent experiments with 3-5 recipients/condition/experiment). […] Addition of either 17-AAG or HSF1A increased the reconstituting potential of cultured HSCs as compared to both control cultured and freshly isolated HSCs.
To test if HSCs depend on Hsf1 for their maintenance in vitro, we conditionally deleted Hsf1 from HSCs, cultured them for 10 days and assessed their long-term multilineage reconstituting activity in competitive transplantation assays. The assay for testing HSC function is to assess their capacity to give long-term (16+ week) multilineage (B cell, T cell and myeloid cell) reconstitution of the blood system of an irradiated transplant recipient. A competitive transplantation assay provides a quantitative readout of HSC regenerative activity.
Modest declines in proteostasis impair HSC maintenance in vivo. […] This raises the possibility that increasing Hsf1 activity could promote HSC maintenance in vitro by enhancing proteostasis capacity. To test if HSP90 inhibitors or TRiC inhibitors promote HSC maintenance in vitro, purified HSCs were sorted from young adult murine bone marrow (CD45.1^+) into 96-well plates (10/well) containing our HSC medium supplemented with 17-AAG or HSF1A. HSCs were cultured for 10 days and competitively transplanted with 2×10^5 freshly isolated congenic bone marrow cells (CD45.2^+) into irradiated mice (CD45.2^+). Recipient mice were bled monthly (for 4 months) to assess levels of donor-derived CD45.1^+ hematopoietic cells. Self-renewal capacity of HSCs was assessed by serially transplanting hematopoietic cells from the primary recipients into secondary irradiated recipients (3×10^6 cells/recipient). […] Similar results are expected for other HSP90 or TRiC inhibitors.
To test if HSP90 inhibitors or TRiC inhibitors enable HSC expansion in vitro, purified HSCs were sorted from young adult bone marrow (CD45.1^+) into 96-well plates (10/well) containing HSC medium supplemented with 17-AAG or HSF1A. HSCs were cultured for 10 days and competitively transplanted with 2×10^5 freshly isolated congenic bone marrow cells (CD45.2^+) into irradiated mice (CD45.2^+). At the same time, 10 freshly isolated HSCs were transplanted with 2×10^5 freshly isolated congenic bone marrow cells into irradiated mice. Recipient mice were bled monthly (for 4 months) to assess levels of donor-derived CD45.1^+ hematopoietic cells. Self-renewal capacity of HSCs was assessed by serially transplanting hematopoietic cells (3×10^6 cells/recipient) into secondary irradiated recipients. […] Similar results are expected for other HSP90 or TRiC inhibitors.

Hsf1 = Hsf1 expression and localization by immunofluorescence in cultured HSCs; type: cell-based, mouse; settings: 10 days culture; 17-AAG 5 nM, HSF1A 8 uM final concentration
Source text: FIG. 14 depicts representative immunofluorescence staining of HSCs cultured for 10 days in the presence or absence of 17-AAG or HSF1A. Addition of 17-AAG or HSF1A to culture medium increased Hsf1 accumulation in the nucleus of cultured HSCs. Hsf1-deficient HSCs and cells stained without primary antibody (Neg Con) are shown as controls.
Since Hsf1 promoted HSC maintenance and protein homeostasis in vitro (FIG. 13), we investigated whether increasing Hsf1 expression or activity would further enhance HSC maintenance. […] Hsf1 can become active as a transcription factor when it translocates to the nucleus. We thus tested whether inhibitors of HSP90 or TRiC would promote Hsf1 accumulation in the nucleus of cultured HSCs by culturing HSCs for 10 days in the presence or absence of 17-AAG (HSP90 inhibitor; 5 nM final concentration) or HSF1A (TRiC inhibitor; 8 uM final concentration), and assessed Hsf1 expression and localization by immunofluorescence.

[2] = tested on: Hsf1-deficient and control HSCs; test: Competitive transplantation of cultured wild-type and Hsf1-deficient HSCs; type: cell-based, mice; settings: 12 weeks after transplantation
Source text: FIG. 17 depicts that Hsf1 is required for 17-AAG and HSF1A to enhance HSC maintenance and expansion in vitro. Donor cell engraftment 12 weeks after transplantation of 10 wild-type and Hsf1-deficient HSCs cultured for 10 days in the presence or absence of 17-AAG, HSF1A or DMSO. Cells were transplanted with 2×10^5 freshly isolated congenic bone marrow cells (n=7-9; *P<0.05, **P<0.01).
We tested whether the positive effects of 17-AAG and HSF1A on HSC maintenance/expansion in vitro were mediated by Hsf1. Purified Hsf1-deficient and control HSCs were sorted from adult bone marrow (CD45.2^+) into 96-well plates (10/well) containing HSC medium supplemented with 17-AAG, HSF1A or vehicle (DMSO). HSCs were cultured for 10 days and competitively transplanted with 2×10^5 freshly isolated congenic bone marrow cells (CD45.1^+) into irradiated mice (CD45.1^+). Recipient mice were bled monthly to assess levels of donor-derived CD45.2^+ hematopoietic cells. […] However, the positive effect of 17-AAG and HSF1A was lost with Hsf1-deficient HSCs (FIG. 17).

## C[C@@H]1C[C@@H]([C@H](O)CC2CC(=O)NC(=O)C2)C(=O)[C@@H](C)C1 [cycloheximide]
[1]
  incorporation of OPP (new protein synthesis): inhibited
CD48-LSK HSCs/MPPs
  accumulation of ubiquitylated protein: blocked

## CC(C)C[C@H](NC(=O)[C@H](Cc1ccccc1)NC(=O)c1cnccn1)B(O)O [Bortezomib]
Bone marrow cells
  increase in TMI fluorescence as compared to cells from vehicle treated controls: ~30%

## CCc1ccc(S(=O)(=O)Nc2cc(-c3cccs3)nn2-c2ccccc2)cc1 [HSF1A]
HSCs; 10 HSCs cultured 10 days vs 10 freshly isolated HSCs
  donor cell reconstitution vs recipients of freshly isolated HSCs: higher levels of donor cell reconstitution as compared to recipients of freshly isolated HSCs
HSCs; 10 HSCs cultured 10 days, with 2x10^5 congenic bone marrow cells, 16 weeks
  donor cell reconstitution in primary recipients vs HSCs cultured without agent: significantly higher levels of donor cell reconstitution as compared to controls
HSCs; primary and secondary transplants, 16 week, >0.5% B-, T-, myeloid cells
  fraction of recipients with long-term multilineage reconstitution vs HSCs cultured without agent: greater fraction
HSCs; secondary transplants
  fraction of recipients with long-term multilineage reconstitution vs freshly isolated HSCs: significantly greater fraction
HSCs; serial transplant, 3x10^6 cells/recipient
  donor cell reconstitution in secondary recipients vs HSCs cultured without agent: even more pronounced
Hsf1
  Hsf1 abundance in the nucleus of cultured HSCs: increase Hsf1 abundance in the nucleus
[2]; 10 HSCs cultured 10 days
  donor cell reconstitution vs controls (DMSO), control HSCs: higher levels of donor cell reconstitution as compared to controls
[2]; Hsf1-deficient HSCs cultured 10 days
  positive effect on donor cell reconstitution with Hsf1-deficient HSCs: lost

Reference: patent publication US20200270576A1, “Ex Vivo Maintenance and Expansion of Stem Cells” (priority 2017, published 2020)
